The nature of the series: solvent given as SMILES.

On to `O=C(O)c1c2ccccc2nc2ccccc12`, for which the emission maximum (in C1CCOC1) is recorded as 418 nm; the emission maximum (in C1COCCO1) is 421 nm; the emission maximum (in CC#N) stood at 421 nm; the emission maximum (in CCCCCO) is on record as 422 nm; the emission maximum (in CCCCO) is listed as 422 nm; the emission maximum (in CCCO) is on record as 422 nm. Besides, the emission maximum by setting is: (in CCO) 421 nm; (in CO) 421 nm; (in COCCOC) 419 nm; (in ClC(Cl)Cl) 436 nm; (in ClCCl) 422 nm; (in OCCO) 425 nm.
Take `F[B-]1(F)n2c(-c3cccs3)cc(-c3ccccc3)c2N=C2C(c3ccccc3)=CC(c3cccs3)=[N+]21`: the emission maximum runs as follows: (in CC#N) 732 nm; (in ClCCl) 740 nm.
Consider `CCOC(=O)CCCCCn1c2ccc(N)cc2c(=O)c2cc3c(cc21)c(=O)c1cc(N)ccc1n3CCCCCC(=O)OCC`, for which the emission maximum (in ClCCl) was 608 nm.
Regarding `CCCCCCCC1=C(C)C(=O)n2c1cc1[nH]c(C(=O)OC)c(C)c1c2=O`, the emission maximum runs as follows: (in C1CCCCC1) 448 nm; (in CO) 500 nm; (in CS(C)=O) 482 nm; (in ClC(Cl)Cl) 448 nm; (in c1ccccc1) 441 nm.
As for `CCCCCCCC[n+]1ccc(-c2cc[n+](CCCCCCCC)cc2)cc1`, the emission maximum (in CC#N) stood at 353 nm.
The compound `CC1(C)c2ccccc2-c2cc3c(cc21)c1ccccc1n3-c1ccncc1` yielded an emission maximum (in ClCCl) of 370 nm.
On to `c1ccc2c(c1)Oc1ccccc1C21c2cc(-c3ccc4ccc5cccc6ccc3c4c56)ccc2-c2ccc(-c3ccc4ccc5cccc6ccc3c4c56)cc21`, for which, where the note is “in ClC(Cl)Cl”, the emission maximum came out at 422 nm.
`COc1ccc(-c2pc3ccccc3s2)cc1` (centres undefined): the emission maximum (in CC#N) was determined as 445 nm.
With `O=C1Nc2ccccc2/C1=C/C(=O)c1ccccc1`, the emission maximum runs as follows: (in C1CCCCC1) 374 nm; (in C1COCCO1) 396 nm; (in CC#N) 398 nm; (in CC(C)(C)O) 407 nm; (in CC(C)O) 412 nm; (in CCCCCC) 374 nm. Further, the emission maximum was 411 nm (in CCCCO); 394 nm (in CCOC(C)=O); 404 nm (in CN(C)C=O); 412 nm (in CO); 398 nm (in ClCCl); 424 nm (in O).
In the case of `N#Cc1cc(N2c3ccccc3Oc3ccccc32)c(N2c3ccccc3Oc3ccccc32)cc1C#N`, the emission maximum (in c1ccc2c(c1)c1ccccc1n2-c1ccc(-c2ccc(-n3c4ccccc4c4ccccc43)cc2)cc1) is given as 612 nm.
With `Clc1nc(Cl)nc(Nc2cc3ccc4cccc5ccc(c2)c3c45)n1`, under “in CCCCOCCCC”, the emission maximum is reported as 374 nm.
As for `F[B-]1(F)n2c(c3cccc4cccc2c43)=Nc2cccc(Cl)[n+]21`, the emission maximum runs as follows: (in C1CCOC1) 503 nm; (in CC#N) 502 nm; (in CCCCCC) 498 nm; (in Cc1ccccc1) 503 nm; (in ClCCl) 526 nm.
Compound `CCCC1(CCC)c2cc(-c3ccc(C(C)(C)CC)cc3)ccc2-c2ccc(-c3ccc(C(C)(C)CC)cc3)cc21` displayed an emission maximum (in C1CCCCC1) of 368 nm.
As to `[C-]#[N+]c1ccc(-c2ccc(NC)cc2)cc1`, the emission maximum is reported as 368 nm (in C1CCCCC1); 406 nm (in C1CCOC1); 395 nm (in C1COCCO1); 421 nm (in CC#N); 427 nm (in CC(C)=O); 366 nm (in CCCCCC). The emission maximum runs as follows: (in CCOC(C)=O) 403 nm; (in CN(C)C=O) 435 nm; (in CO) 422 nm; (in CS(C)=O) 436 nm; (in Cc1ccccc1) 388 nm; (in ClC(Cl)Cl) 400 nm. Besides, the emission maximum by setting is: (in ClCCl) 405 nm; (in O) 458 nm; (in c1ccncc1) 421 nm.
In the case of `N#Cc1ccc(/C=C/C=C/C2=NC3C(=O)NC(N)=NC3N2[C@H]2C[C@H](O)[C@@H](CO)O2)cc1` (some centres undefined), the emission maximum came to 486 nm (in C1COCCO1), 526 nm (in CC#N) and 522 nm (in CO).
Compound `CC1(C)c2ccccc2-c2cc3c(cc21)c1ccccc1n3-c1ccc2ccccc2n1` came in with an emission maximum (in ClCCl) of 438 nm.
Take `N#Cc1c2oc3ccccc3oc2c(C#N)c2oc3ccccc3oc12`: for the setting “in ClC(Cl)Cl”, the emission maximum is reported as 475 nm.
On to `COc1ccc(-c2csc(-c3ccncc3)n2)cc1`, for which the emission maximum by setting is: (in CC#N) 560 nm; (in CCO) 457 nm; (in CN(C)C=O) 451 nm; (in CS(C)=O) 455 nm; (in Cc1ccccc1) 415 nm; (in ClCCl) 548 nm.
Regarding `Nc1nc2ccc(F)cc2[n+]([O-])n1`, the emission maximum by setting is: (in CC#N) 491 nm; (in O) 526 nm.
Turning to `C1=Cc2ccc(N(c3ccccc3)c3ccccc3)cc2Cc2cc(N(c3ccccc3)c3ccccc3)ccc21`, where the note is “in ClCCl”, the emission maximum was determined as 440 nm.
Same read-out and setting: next, `N#C/C(=C\c1ccc(/C=C/c2ccc(N(c3ccccc3)c3ccccc3)cc2)s1)C(=O)O`: 676 nm.
Take `COc1cc(OC)cc(C2=C3C(C)=C(I)C(C)=[N+]3[B-](F)(F)n3c(/C=C/c4c[nH]c5ccccc45)c(I)c(C)c32)c1`: the emission maximum is 668 nm (in C1CCOC1), 676 nm (in CS(C)=O) and 661 nm (in ClCCl).
Regarding `CCCCCCCCC1(CCCCCCCC)c2cc(-c3ccc(C(F)(F)F)cc3)ccc2-c2ccc(N(c3ccc(-n4c5ccccc5c5ccccc54)cc3)c3ccc4c(c3)C(CCCCCCCC)(CCCCCCCC)c3cc(-c5ccc(C(F)(F)F)cc5)ccc3-4)cc21`, the emission maximum worked out at 455 nm (in C1CCOC1); 434 nm (in C1COCCO1); 495 nm (in CC#N); 477 nm (in CC(C)=O); 416 nm (in CCCCCC); 425 nm (in CCCCOCCCC). Also, the emission maximum (in CCN(CC)CC) was 423 nm; the emission maximum (in CCOC(C)=O) was 450 nm; the emission maximum (in CCOCC) came out at 432 nm; the emission maximum (in CN(C)C=O) stood at 493 nm; the emission maximum (in CS(C)=O) is on record as 486 nm; the emission maximum (in Cc1ccccc1) is 427 nm. The emission maximum reads like this: (in ClC(Cl)Cl) 445 nm; (in ClCCl) 465 nm; (in c1ccccc1) 428 nm.
Turning to `O=C1OC(=O)[C@H]2[C@@H]1[C@@H]1C[C@H]2c2c1c(-c1ccccc1)c1ccccc1c2-c1ccccc1`, the emission maximum (in ClC(Cl)Cl) turned out to be 362 nm.
With `O=S(=O)(c1ccc(-c2ccc3c(c2)c2ccccc2n3-c2ccccc2)cc1)c1ccc(-c2ccc3c(c2)c2ccccc2n3-c2ccccc2)cc1`, the emission maximum is listed as 365.07 nm (in C1CCCCC1); 403.28 nm (in C1CCOC1); 431.81 nm (in CN(C)C=O); 381 nm (in Cc1ccccc1); 402.48 nm (in ClC(Cl)Cl); 415.93 nm (in ClCCl).
